Results from US20250275538A1, “COMPOSITIONS CONTAINING L-CARNITINE AND SEAWEED EXTRACT FOR MITIGATING ABIOTIC STRESS IN PLANTS” (ACADIAN SEAPLANTS LIMITED, priority 2022, published 2025).

Assays:
Assay type in all cases: in vivo
[1] = tested on: corn (cv. H140354); assay: Corn drought stress controlled environment room trial (seed treatment); settings: 10 days after sowing
Procedure: Corn seed (cv. H140354) was treated at a total application volume of 10 ml/kg with water (unstressed control and stressed control treatment groups), or an aqueous solution of Ascophyllum nodosum extract (ANE) at 2 ml/kg, or an aqueous solution of L-carnitine hydrochloride (CAR) at 0.3 g/kg, or a combinations of Ascophyllum nodosum extract at 2 ml/kg and 0.3 g/kg L-carnitine hydrochloride. Treated corn seed was sown in field soil inside cell packs set in greenhouse trays with 16 biological replicates per treatment group in a randomized complete block design. Three days after seeding, drought stress was imposed on all but the unstressed control treatment group through a 75% reduced irrigation regime relative to the full irrigation received by the unstressed control group, and assessments were made ten days after seeding.

[2] = tested on: winter wheat (cv. Marius); assay: Wheat drought stress greenhouse trial (seed treatment); settings: ANE alone 1 ml/kg, CAR alone 0.3 g/kg; for plant vigour, Mean: 0-10 scale
Procedure: Winter wheat seed (cv. Marius) was treated at a total application volume of 10 ml/kg with water (unstressed control and stressed control treatment groups), or an aqueous solution of Ascophyllum nodosum extract (ANE) at 1 ml/kg, or an aqueous solution of L-carnitine hydrochloride (CAR) at 0.3 g/kg, or combinations of Ascophyllum nodosum extract at 1 ml/kg with either 0.1, 0.2, 0.3, or 0.4 g/kg L-carnitine hydrochloride. Treated wheat seed was sown in soil in pots with 10 biological replicates per treatment group in a randomized complete block design. Four days after full emergence, drought stress was imposed on all but the unstressed control treatment group through a 50% reduced irrigation regime relative to the full irrigation received by the unstressed control group.

[3] = tested on: Marula soybean (reference SEED-003); assay: Soybean subject to salinity stress (seed treatment), NPQt, shoot weight and synergy assessment; settings: 17 days after sowing, ANE alone 0.36 g
Procedure: To supplement the observed evidence of efficacy, a synergy assessment was made. Synergy was calculated using two different methodologies, both of which find support in the literature: 1) Equation Ill from Colby, S. R. 1967. Calculating synergistic and antagonistic responses of herbicide combinations. Weed Science 15:20-22. and 2) Equation 2 from Huang, Z., and K. A. Falco. 2021. Synergy assessment for plant growth by independent joint action theory. HortScience 56(5):623-626. doi: 10.21273/HORTSC115731-21. A one-sample, two-tailed t-test was used to assess the statistical significance of the difference between the observed and predicted means. The same Seed Treatments solutions (Table 20) and trial protocol were used as in Example 6, but seeds were planted at 1.5″. To coat seeds, 0.3 mL of treatment solution was pipetted into a 500-mL glass beaker around the edges and 30 g of soybean seed was added. Marula soybean seed (reference SEED-003) from Prograin was used, without any other treatment. An estimate of NPQt was obtained using the MultispeQ™ (B-4003-AA) from PhotosynQ, according to manufaturer's directions. For the photosynthesis measuments a total of 12-14 plants per treatment were measured. For Example 7, parametric analysis of variance (ANOVA) was done using the aov function in the ggpubr package, and multiple comparison testing was done with the Tukey test (alpha=0.1) using the TukeyHSD function in the stats package in R. Shoot weight was evaluated to assess whether the positive effects observed in NPQt was reflected in more robust plant grown. Seven cell packs per treatment were measured for shoot weight.

[4] = tested on: wheat (cultivar Skyfall, ref. SEED-0035); assay: Wheat subject to cold stress (seed treatment), NPQt and synergy assessment; settings: 10 days after sowing, ANE alone 0.36 g
Procedure: Seed Treatment solutions were prepared per Table 20:
0.1 mL of treatment solution was pipetted into a 500-mL glass beaker around the edges and 10 g of wheat seed (cultivar Skyfall, ref. SEED-0035) was added. The beaker was swirled by hand for 1 min to coat the seeds, which were then swirled intermittently until dry, if needed.
The trial was set up according to the following protocol: • 1. 32 8-0-6 cell packs were labelled with coloured stickers to denote five treatments with 4 cell packs for non-stress controls and 7 for the remaining 4 treatments. • 2. In a container 6 L of stored field soil and 600 mL water were mixed thoroughly. • 3. If soil was too dry, an additional 300 mL water, or an amount as appropriate, was added. • 4. […]
An estimate of non-photochemical quenching (NPQt), which is the amount of incoming light that is regulated away from photosynthetic processes in order to reduce damage to the plant was obtained using the MultispeQ (B-4003-AA) from PhotosynQ, according to manufaturer's directions. For the photosynthesis measuments a total of 12-14 plants per treatment were measured. […]
To supplement the observed evidence of efficacy, a synergy assessment was made. Synergy was calculated using two different methodologies, both of which find support in the literature: 1) Equation Ill from Colby, S. R. 1967. […]

[5] = tested on: soybean (cv. Mungo); assay: Soybean drought stress greenhouse trial (seed treatment); settings: 51 days after sowing, ANE alone 1 ml/kg, CAR alone 0.3 g/kg
Procedure: Soybean seed (cv. Mungo) was treated at a total application volume of 10 ml/kg with water (unstressed control and stressed control treatment groups), or an aqueous solution of Ascophyllum nodosum extract (ANE) at 1 ml/kg, or an aqueous solution of L-carnitine hydrochloride (CAR) at 0.3 g/kg, or combinations of Ascophyllum nodosum extract at 1 ml/kg with either 0.1, 0.2, 0.3, or 0.4 g/kg L-carnitine hydrochloride. Treated soybean seed was sown in pots containing soil with 10 biological replicates per treatment group in a randomized complete block design. Four days after full emergence, drought stress was imposed on all but the unstressed control treatment group through a 50% reduced irrigation regime relative to the full irrigation received by the unstressed control group.

[6] = tested on: winter wheat (cv. Marius); assay: Wheat salinity stress greenhouse trial (seed treatment); settings: ANE alone 1 ml/kg, CAR alone 0.3 g/kg
Procedure: Winter wheat seed (cv. Marius) was treated at a total application volume of 10 ml/kg with water (unstressed control and stressed control treatment groups), or an aqueous solution of Ascophyllum nodosum extract (ANE) at 1 ml/kg, or an aqueous solution of L-carnitine hydrochloride (CAR) at 0.3 g/kg, or combinations of Ascophyllum nodosum extract at 1 ml/kg with either 0.1, 0.2, 0.3, or 0.4 g/kg L-carnitine hydrochloride. Treated wheat seed was sown in pots containing soil with 10 biological replicates per treatment group in a randomized complete block design. Four days after full emergence, salinity stress was imposed on all but the unstressed control treatment group through irrigation with saline water (8 g/l NaCl) for the remainder of the trial. The unstressed control treatment group was irrigated with non-saline water.

[7] = drought stress (75% reduced irrigation), ANE alone 2 ml/kg, CAR alone 0.3 g/kg
[8] = compared to stressed control, drought stress, ANE alone 2 ml/kg, CAR alone 0.3 g/kg
[9] = 50 days after sowing, drought stress (50% reduced irrigation)
[10] = compared to stressed control, 50 days after sowing, drought stress
[11] = compared to stressed control, Carnitine alone 0.30 g
[12] = drought stress (50% reduced irrigation)
[13] = compared to stressed control, drought stress

SMILES: C[N+](C)(C)C[C@H](O)CC(=O)[O-].Cl [CAR, L-carnitine hydrochloride]
- linear electron flow (LEF), Mean [1, 7]: 10.14
- photosynthetic efficiency (photosystem II efficiency, Phi2), Mean [1, 7]: 0.32
- root length, Mean [1, 7]: 263.3
- linear electron flow (LEF), Difference (%) [1, 8]: −4.3%
- non-photochemical quenching (NPQt), Difference (%) [1, 8]: −10.0%
- photosynthetic efficiency (Phi2), Difference (%) [1, 8]: 5.7%
- root length, Difference (%) [1, 8]: 16.4%
- non-photochemical quenching (NPQt), Mean ([1]; indicator of plant stress level, drought stress (75% reduced irrigation), ANE alone 2 ml/kg, CAR alone 0.3 g/kg): 2.32
- decrease in LEF ([1]; stated as decrease vs stressed control, CAR at 0.3 g/kg, drought stress): 4.3%
- plant vigour, Mean ([2]; 21 days after sowing, drought stress (50% reduced irrigation), combinations as labelled): 7.60
- plant vigour, Mean ([2]; 42 days after sowing, drought stress (50% reduced irrigation)): 8.35
- foliar fresh weight, Mean [2, 9]: 9.94
- root fresh weight, Mean [2, 9]: 3.66
- plant vigour, Difference (%) ([2]; compared to stressed control, 21 days after sowing, drought stress): 7.0%
- plant vigour, Difference (%) ([2]; compared to stressed control, 42 days after sowing, drought stress): 11.3%
- foliar fresh weight, Difference (%) [2, 10]: 9.9%
- root fresh weight, Difference (%) [2, 10]: 67.5%
- shoot weight (Shoot Fresh Weight), Mean ([3]; Carnitine alone 0.30 g): 1.69
- non-photochemical quenching (NPQt), Mean ([3]; Carnitine alone 0.30 g (Table 20 solutions)): 0.76
- non-photochemical quenching (NPQt), Difference (%) [3, 11]: −12.4%
- shoot weight, Difference (%) [3, 11]: 3.0%
- non-photochemical quenching (NPQt), Mean ([4]; cold stress 13/8° C. day/night for 4 days, Carnitine alone 0.30 g (Table 20 solutions)): 0.40
- non-photochemical quenching (NPQt), Difference (%) ([4]; compared to stressed control, cold stress, Carnitine alone 0.30 g): −4.8%
- foliar dry weight, Mean [5, 12]: 12.64
- foliar fresh weight, Mean [5, 12]: 49.1
- plant vigour, Mean [5, 12]: 9.4
- foliar dry weight, Difference (%) [5, 13]: 55.9%
- foliar fresh weight, Difference (%) [5, 13]: 24.9%
- plant vigour, Difference (%) [5, 13]: 23.7%
- plant height, Mean ([6]; 22 days after sowing, salinity stress (irrigation with 8 g/l NaCl)): 27.55
- relative chlorophyll content (SPAD), Mean ([6]; 29 days after sowing, salinity stress (8 g/l NaCl)): 35.30
- plant height, Mean ([6]; 35 days after sowing, salinity stress (8 g/l NaCl)): 37.39
- plant vigour, Mean ([6]; 43 days after sowing, salinity stress (8 g/l NaCl)): 8.68
- fresh foliar biomass, Mean ([6]; 50 days after sowing, salinity stress (8 g/l NaCl)): 10.6
- plant height, Difference (%) ([6]; compared to stressed control, 22 days after sowing, salinity stress): 6.8%
- relative chlorophyll content (SPAD), Difference (%) ([6]; compared to stressed control, 29 days after sowing, salinity stress): 17.1%
- plant height, Difference (%) ([6]; compared to stressed control, 35 days after sowing, salinity stress): 17.2%
- plant vigour, Difference (%) ([6]; compared to stressed control, 43 days after sowing, salinity stress): 9.9%
- fresh foliar biomass, Difference (%) ([6]; compared to stressed control, 50 days after sowing, salinity stress): 29.3%
